Laboratory results taken from US20150017673A1, “COMPOSITIONS AND METHODS FOR DRUG-SENSITIZATION OR INHIBITION OF A CANCER CELL” (priority 2012, published 2015).

Tested on: CRL2631 cells
Assay: Modified Boyden chamber invasion assay, CRL2631 cells
Type: cell-based, human
Conditions: 10 μM rifabutin 24 hours; DMSO 39,356
Method: A modified Boyden chamber assay was used as an independent method to evaluate rifabutin's ability to suppress invasion/metastasis. […] Cell invasion was assessed with a Chemicon QCM Collagen Invasion Assay (Millipore). The assay is a 96-well plate assay wherein each well is equipped with a suspended insert. Inserts contain an 8-micron membrane coated with a thin layer of polymerized collagen. Invading cells migrate through the collagen layer and attach to the bottom of the membrane. Cells were detached from the membrane and lysed prior to detection via CyQuant dye. Fluorescence intensity is proportional to number of invading cells. […] In CRL2631 cells RLU decreases from 39,356 to 27,432 RLU in the presence of rifabutin (p<0.05).

CO[C@H]1/C=C/O[C@@]2(C)Oc3c(C)c(O)c4c(c3C2=O)C2=NC3(CCN(CC(C)C)CC3)NC2=C(NC(=O)/C(C)=C\C=C\[C@H](C)[C@H](O)[C@@H](C)[C@@H](O)[C@@H](C)[C@H](OC(C)=O)[C@@H]1C)C4=O [Rifabutin, rifabutin]
relative fluorescence (invading cells): 27,432 RLU
